Experimental data as given in BindingDB's records for patent US11993596 (Chia Tai Tianqing Pharmaceutical Group, 2024).

target: T1, 3',5'-cyclic-AMP phosphodiesterase 4B (Homo sapiens, UniProt Q07343); test: In Vitro Detection of the Inhibitory Activity of Compounds Against PDE 4B Enzyme
T1 construct: gene PDE4B
Description: The recombinant human PDE4B enzyme and enzyme substrate (1 μM cAMP) were each dissolved in newly prepared experimental buffer solution;2. The PDE4B enzyme buffer solution was transferred into reaction wells;3. The compound which was dissolved in 100% DMSO was added to the reaction wells containing PDE4B enzyme buffer solution by acoustic technique (echo 550; […]) and the mixture was incubated for 10 minutes at room temperature;4. The enzyme substrate buffer solution was added to the above reaction wells to initiate reaction;5. The resulting mixture was incubated at room temperature for 1 hour;6. The detection mixture (Transcreener AMP2/GMP2 antibody and AMP2/GMP2 AlexaFluor633 tracer) was added to stop the reaction, and the resulting mixture was incubated for 90 minutes while slowly mixing.

T1 sequence (Q07343 whole entry, looked up): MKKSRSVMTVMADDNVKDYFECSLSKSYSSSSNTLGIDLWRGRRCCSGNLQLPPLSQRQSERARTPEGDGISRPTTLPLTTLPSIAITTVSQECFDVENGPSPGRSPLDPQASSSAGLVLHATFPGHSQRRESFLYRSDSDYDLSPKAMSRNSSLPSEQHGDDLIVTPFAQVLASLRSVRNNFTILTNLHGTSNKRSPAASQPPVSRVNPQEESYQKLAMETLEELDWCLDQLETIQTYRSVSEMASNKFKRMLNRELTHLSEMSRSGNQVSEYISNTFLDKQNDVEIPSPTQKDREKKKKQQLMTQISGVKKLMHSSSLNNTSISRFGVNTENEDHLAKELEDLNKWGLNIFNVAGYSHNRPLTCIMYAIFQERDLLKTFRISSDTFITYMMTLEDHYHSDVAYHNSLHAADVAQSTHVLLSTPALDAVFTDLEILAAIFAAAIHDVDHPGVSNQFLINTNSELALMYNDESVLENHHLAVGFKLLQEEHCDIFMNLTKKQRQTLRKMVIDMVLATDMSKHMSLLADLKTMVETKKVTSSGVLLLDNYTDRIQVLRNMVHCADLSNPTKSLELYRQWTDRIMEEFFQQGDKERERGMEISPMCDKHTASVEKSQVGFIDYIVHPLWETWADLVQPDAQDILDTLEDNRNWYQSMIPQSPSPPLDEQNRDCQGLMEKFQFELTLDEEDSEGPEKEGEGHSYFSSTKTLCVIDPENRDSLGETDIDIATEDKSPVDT

Compound | IC50 [nM]
CCOc1cc2c(cc1OC)-c1c/c(=N\c3c(C)cc(C)cc3C)n(CCNc3nc[nH]n3)c(=O)n1CC2 [US11993596, Compound WX003] | 2.2
CCOc1cc2c(cc1OC)-c1c/c(=N\c3c(C)cc(C)cc3C)n(CCNc3nncs3)c(=O)n1CC2 [US11993596, Compound WX005] | 5.7
CCOc1cc2c(cc1OC)-c1c/c(=N\c3c(C)cc(C)cc3C)n(CCN(O)C(=O)c3cnn[nH]3)c(=O)n1CC2 [US11993596, Compound WX064] | 1.4
CCOc1cc2c(cc1OC)-c1c/c(=N\c3c(C)cc(C)cc3C)n(CCNC(=O)c3nnc[nH]3)c(=O)n1CC2 [US11993596, Compound WX015] | 0.56
CCOc1cc2c(cc1OC)-c1c/c(=N\c3c(C)cc(C)cc3C)n(CCN3CCOC3=O)c(=O)n1CC2 [US11993596, Compound WX001] | 6.5
CCOc1cc2c(cc1OC)-c1c/c(=N\c3c(C)cc(C)cc3C)n(CCC(=O)Nc3nnc[nH]3)c(=O)n1CC2 [US11993596, Compound WX054] | 2.7
